Reference: patent US6818407B2, “Anti-endotoxic antimicrobial cationic peptides and methods of use therfor” (priority 1998, dated 2004)
Ends that are not written are not given here.

Key:
[1] = system: Salmonella typhimurium wild type (C587); assay type: cell-based; settings: Mueller Hinton Broth
Description: (§1) The biological activity of the peptides can be determined by standard methods known to those of skill in the art, such as Aminimal inhibitory concentration (MIC)≅ assay described in the present examples, whereby the lowest concentration at which no change in OD is observed for a given period of time is recorded as MIC. Alternatively, Afractional inhibitory concentration (FIC)≅ is also useful for determination of synergy between the peptides of the invention, or the peptides in combination with known antibiotics. FICs are performed by checkerboard titrations of peptides in one dimension of a microtiter plate, and of antibiotics in the other dimension, for example. The FIC is calculated by looking at the impact of one antibiotic on the MIC of the other and vice versa. […] Preferably, an FIC of less than 0.5 is obtained for synergism. As used herein, FIC can be determined as follows: [formula]
(§2) These peptides varied in activity (Table 11), however, the C-terminally capped pleurocidin especially and its N-terminally capped lysine derivative had much better activities against a variety of bacteria including Vibrio anguillarum (Va), Aeromonas salmonicida (As), Staphylococcus epidermidis (C621), Salmonella typhimurium wild type (C587) and phoP phoQ mutant (C610), and Pseudomonas aeruginosa wild type (K799) and outer membrane barrier altered (Z61). The antimicrobial peptide CEME, a fusion peptide made from portions of an insect defensin ceropin A and the bee venom peptide melittin (Piers and Hancock, Mol. Microbiol., 12:951-8, 1994), as well as the known antibiotics polymyxin B and gentamicin were used as controls. Replacing the pleurocidin N-terminus with the dermaseptin N-terminus had no effect. Replacing pleurocidin N-terminus with the ceratoxin N-terminus reduced activity. […] Amidating the C-terminus improved antimicrobial activity. Replacing the pleurocidin C-terminus with the misgurin C-terminus had no effect.
(§3) Bacteria included Vibrio anguillarum (Va), Aeromonas salmonicida (As), Staphylococcus epidermidis (C621), Salmonella typhimurium wild type (C587) and phoP phoQ mutant (C6 10), and Pseudomonas aeruginosa wild type (K799) and outer membrane barrier altered (Z61).

[2] = system: Aeromonas salmonicida (As); assay type: cell-based; settings: Mueller Hinton Broth
Description: as §1, §2, §3

Vibrio anguillarum (Va) = assay type: cell-based; settings: Mueller Hinton Broth
Description: as §1, §2, §3

[3] = system: Staphylococcus epidermidis (C621); assay type: cell-based; settings: Mueller Hinton Broth
Description: as §1, §2, §3

[4] = system: Pseudomonas aeruginosa outer membrane barrier altered (Z61); assay type: cell-based; settings: Mueller Hinton Broth
Description: as §1, §2, §3

[5] = system: Salmonella typhimurium phoP phoQ mutant (C610); assay type: cell-based; settings: Mueller Hinton Broth
Description: as §1, §2, §3

[6] = system: Pseudomonas aeruginosa wild type (K799); assay type: cell-based; settings: Mueller Hinton Broth
Description: as §1, §2, §3

Salmonella typhi = test: Synergy study (checkerboard titration) with hen white lysozyme; assay type: cell-based
Description: as §1

E. coli [7] = test: as above; assay type: cell-based; settings: for Lowest [CP] showing synergy: cationic peptide concentration, combined with lysozyme; for Lowest [Lyso] showing synergy: lysozyme concentration, combined with the peptide
Description: as §1

P. aeruginosa (H103) = test: as above; assay type: cell-based; settings: for Lowest [CP] showing synergy: cationic peptide concentration, combined with lysozyme; for Lowest [Lyso] showing synergy: lysozyme concentration, combined with the peptide
Description: as §1

[8] = system: P. aeruginosa gyrase mutant (Nal A, H374); assay type: cell-based; settings: for (B) MIC of Nal when combined with peptide: nalidixic acid with peptide at concentration (A), unit from method; for (B) MIC of Nal when combined with peptide / FIC index / (A) Peptide doses together with Nal: Nal A; for FIC index: peptide + nalidixic acid; for MIC A MIC of Peptides: peptide alone, P. aeruginosa gyrase mutant Nal A; for (A) Peptide doses together with Nal: peptide concentration in combination with nalidixic acid
Description: as §1
(§4) To test whether the peptides of the invention synergize with various antibiotics, the following method was employed. Fractional Inhibitory Concentration (FIC) was used to determine synergy of peptides combined with antibiotics (e.g., carbenicillin/ciprofloxacin) against Pseudomonas aeruginosa. The following methodology was followed:
(§5) (1) Determination of MIC of cationic peptides (MIC A):
(§6) 100 μl Mueller Hinton broth (MHB) was added per well
(§7) 12.5 μl of 10× test concentration peptide was added per well to get final peptide concentration of e.g., 128, 64, 32, . . . 0.025 μg/ml from row 1 to 11;
(§8) 10 μl of 10^−4 dilution of overnight bacterial culture was added per well.
(§9) (2) Determination of MIC of Carbenicillin/Ciprofloxacin (MIC B):
(§10) 100 μl MHB was added per well;
(§11) 100 μl of 2× test concentration of antibiotic was added in the first well of the row, and doubling dilutions performed across the plate from column 1 to 11;
(§12) (3) Determination of MIC of antibiotics (B) when combined with peptides at concentration A:
(§13) 100 μl Carbenicillin (512 μg/ml) or Ciprofloxacin (8 μg/ml) was added in each well of column 1; doubling dilutions were performed across the plate;
(§14) 100 μl of the peptide was added in all wells of row 1, mixed, and 100 μl withdrawn and added to row 2, etc., creating a checkerboard titration.
(§15) 10 μl of 10^−4 dilution of overnight culture was added per well;
(§16) plates were incubated at 37EC for 18-24 hours. Combination MIC values A and B were taken as the lowest concentration of drug that reduced bacterial growth by more than 50% in any given column.
(§17) (4) FIC index=FICA+FICB=(A)/MIC A+(B)/MIC B. An FIC index of approximately 0.5 or less indicates synergy; 1.0 reflects additivity; and >1.0 indicates antagonism.

E. coli [9] = test: MIC, broth microdilution assay in polypropylene microtiter trays; assay type: cell-based; settings: average of three separate experiments
Description: as §1
(§18) A method which employed polypropylene microtiter trays in a broth microdilution assay was developed.

S. aureus = test: as above; assay type: cell-based; settings: average of three separate experiments
Description: as §1, §18

P. aeruginosa = test: as above; assay type: cell-based; settings: average of three separate experiments
Description: as §1, §18

S. aureus K147 = test: as above; assay type: cell-based; settings: average of three separate experiments
Description: as §1, §18

[10] = system: mutant (Nal B, H744) of P. aeruginosa; test: microbe, parasite or virus in culture; assay type: cell-based; settings: for (B) MIC of Cipro when combined with peptide: ciprofloxacin with peptide at concentration (A); for (B) MIC of Cipro when combined with peptide / FIC index / (A) Peptide doses together with Cipro: Nal B, H744; for FIC index: peptide + ciprofloxacin; for MIC A MIC of Peptides: peptide alone, P. aeruginosa mutant Nal B, H744 (Table 5); for (A) Peptide doses together with Cipro: peptide concentration in combination with ciprofloxacin
Description: as §1, §4, §5, §6, §7, §8, §9, §10, §11, §12, §13, §14, §15, §16, §17

[11] = system: P. aeruginosa efflux mutant (Nal B, H744); test: microbe, parasite or virus in culture; assay type: cell-based; settings: for (B) MIC of Nal when combined with peptide: nalidixic acid with peptide at concentration (A), unit from method; for (B) MIC of Nal when combined with peptide / FIC index / (A) Peptide doses together with Nal: efflux mutant Nal B, H744; for FIC index: peptide + nalidixic acid; for MIC A MIC of Peptides: peptide alone, P. aeruginosa efflux mutant Nal B, H744 (Table 6); for (A) Peptide doses together with Nal: peptide concentration in combination with nalidixic acid
Description: as §1, §4, §5, §6, §7, §8, §9, §10, §11, §12, §13, §14, §15, §16, §17

[12] = system: β-lactamase derepressed mutant (H547) of P. aeruginosa; test: microbe, parasite or virus in culture; assay type: cell-based; settings: P. aeruginosa H547; for (B) MIC of Carb when combined with peptide: Carbenicillin with peptide at concentration (A); for FIC index: peptide + Carbenicillin, about 0.5 or less synergy, 1.0 additivity, >1.0 antagonism; for MIC A MIC of Peptides: peptide alone; for (A) Peptide doses together with Carb: peptide concentration in combination with Carbenicillin
Description: as §1, §4, §5, §6, §7, §8, §9, §10, §11, §12, §13, §14, §15, §16, §17

[13] = system: Pseudomonas aeruginosa strain M2; test: Protection of neutropenic CD-1 mice challenged with Pseudomonas aeruginosa; assay type: in vivo; parameters: Survival post bacterial challenge, surviving mice: reference not given here; settings: for Survival (%) post bacterial challenge: PBS 8
Description: CD-1 mice were induced to be neutropenic via 3 intraperitoneal injections of cyclophosphamide ([…]) every another day. Immediately after the third administration of cyclophosphamide, the mice were challenged by intraperitoneal injection of Pseudomonas aeruginosa strain M2 (200-300 organisms/mouse). Cationic peptides (200 µg per mouse=8 mg/kg) in 100 µl buffered citrate were injected intraperitoneally at 30 min (single dose) or 30 min and 16 hrs (double dose) post bacterial challenge, respectively. The data were the average values of 2 individual experiments. PBS was used as a control. […] In general single dose protection studies gave better protection than double dose experiments.

Sequence	FIC for combination of cationic peptide and lysozyme (Salmonella typhi)	FIC for combination of cationic peptide and lysozyme (E. coli [7])	Lowest [CP] showing synergy (E. coli [7]) [µg/mL]	Lowest [Lyso] showing synergy (E. coli [7]) [µg/mL]	FIC for combination of cationic peptide and lysozyme (P. aeruginosa (H103))	Lowest [CP] showing synergy (P. aeruginosa (H103)) [µg/mL]	Lowest [Lyso] showing synergy (P. aeruginosa (H103)) [µg/mL]	(B) MIC of Nal when combined with peptide [8] [µg/mL]	FIC index [8]	MIC A MIC of Peptides [8] [µg/mL]	(A) Peptide doses together with Nal [8] [µg/mL]	MIC E. coli (E. coli [9]) [µg/mL]	MIC S. aureus (S. aureus) [µg/mL]	MIC P. aeruginosa (P. aeruginosa)	MIC S. aureus K147 (S. aureus K147) [µg/mL]	(B) MIC of Cipro when combined with peptide [10]	FIC index [10]	MIC A MIC of Peptides [10] [µg/mL]	(A) Peptide doses together with Cipro [10] [µg/mL]	(B) MIC of Nal when combined with peptide [11] [µg/mL]	further results
ALWKTMLKKAAHVGKHVGKAALGAAARRRK [DER-M]	–	–	–	–	–	–	–	–	–	–	–	–	–	–	–	–	–	–	–	–	MIC C587 [1]: 32 µg/mL; MIC As [2]: 2 µg/mL; MIC Va (Vibrio anguillarum (Va)): >64 µg/mL; MIC C621 [3]: 32 µg/mL; MIC Z61 [4]: 8 µg/mL; MIC C610 [5]: 0.5 µg/mL; MIC K799 [6]: 64 µg/mL
KKWKKFIKKIGIGAVLTTPGAKK [CPα3]	Confluent	0.31	0.65	62.5	0.08	1.3	7.8	800	0.50	8	1	4	>64	≧64 μg/ml	>64	.125 µg/mL	.75	4	1	400	FIC index [11]: 0.50; MIC A MIC of Peptides [11]: 4 µg/mL; (A) Peptide doses together with Nal [11]: 1 µg/mL; (B) MIC of Carb when combined with peptide [12]: 32 µg/mL; FIC index [12]: 0.75; MIC A MIC of Peptides [12]: 16 µg/mL; (A) Peptide doses together with Carb [12]: 4 µg/mL
KWKSFIKKLTSAAKKVTTAAKPLTK [CPα1]	0.63	0.31	0.65	7.8	0.28	5.21	7.8	800	0.38	8	1	1.5	>64	≧64 μg/ml	>64	.125 µg/mL	.63	8	1	400	Lowest [CP] showing synergy (Salmonella typhi; cationic peptide concentration, combined with lysozyme): 41.7 µg/mL; Lowest [Lyso] showing synergy (Salmonella typhi; lysozyme concentration, combined with the peptide): 125 µg/mL; FIC index [11]: 0.38; MIC A MIC of Peptides [11]: 8 µg/mL; (A) Peptide doses together with Nal [11]: 1 µg/mL; (B) MIC of Carb when combined with peptide [12]: 32 µg/mL; FIC index [12]: 0.75; MIC A MIC of Peptides [12]: 16 µg/mL; (A) Peptide doses together with Carb [12]: 4 µg/mL
KWKSFIKKLTSAAKKVVTTAKPLISS (H-KWKSFIKKLTSAAKKVVTTAKPLISS-OH) [CP26, reference compound]	–	–	–	–	–	–	–	–	–	–	–	–	–	–	–	–	–	–	–	–	Survival post bacterial challenge, surviving mice ([13]; single dose (200 μg per mouse i.p. at 30 min), 16 hr): 8; Survival post bacterial challenge, surviving mice ([13]; single dose, 24 hr): 8; Survival post bacterial challenge, surviving mice ([13]; single dose, 41 hr): 6; Survival post bacterial challenge, surviving mice ([13]; single dose, 48 hr): 4; Survival post bacterial challenge, surviving mice ([13]; single dose, 64 hr): 3; Survival (%) post bacterial challenge ([13]; single dose, 64 hr): 37%; Survival post bacterial challenge, surviving mice ([13]; single dose, 72 hr): 3; Survival (%) post bacterial challenge ([13]; single dose, 72 hr): 37%; Survival post bacterial challenge, surviving mice ([13]; single dose, 96 hr): 3; Survival (%) post bacterial challenge ([13]; single dose, 96 hr): 37%
